Measured values reported in the Kinase Knowledgebase extract (Sharma et al. 2016).

Biological target: MAPK14 (human) (UniProt Q16539)
Test: Inhibition of MAPK14 Kinase Activity

MAPK14 (human), sequence (Q16539 whole entry, looked up): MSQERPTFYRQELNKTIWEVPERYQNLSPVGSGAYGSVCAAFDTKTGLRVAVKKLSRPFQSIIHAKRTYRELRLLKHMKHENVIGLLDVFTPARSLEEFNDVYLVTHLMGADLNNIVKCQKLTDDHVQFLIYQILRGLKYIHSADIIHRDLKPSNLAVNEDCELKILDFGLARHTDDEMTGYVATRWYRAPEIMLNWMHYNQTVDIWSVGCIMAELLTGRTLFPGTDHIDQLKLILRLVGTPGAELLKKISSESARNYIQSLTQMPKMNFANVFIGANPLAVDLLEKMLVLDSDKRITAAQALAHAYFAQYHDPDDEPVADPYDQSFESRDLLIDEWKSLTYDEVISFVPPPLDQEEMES

Row | SMILES | IC50 [µM]
1 | COc1nc(-c2ccc(F)cc2C)c2ccc(=O)n(-c3c(F)cccc3F)c2n1 | < 10
2 | Cc1cc(F)ccc1-c1nc(NC2CCN(C)CC2)nc2c1ccc(=O)n2-c1c(F)cccc1F | < 10
3 | Cc1cc(F)ccc1-c1nc(NCC(F)(F)F)nc2c1ccc(=O)n2-c1c(F)cccc1F | < 10
4 | CSCCCOc1nc(-c2ccc(F)cc2C)c2ccc(=O)n(-c3c(F)cccc3F)c2n1 | < 10
5 | CSc1nc(-c2ccccc2F)c2ccc(=O)n(CC3CC3)c2n1 | < 10
6 | O=c1ccc2c(-c3ccccc3Cl)nc(NC(CO)CO)nc2n1-c1ccccc1Cl | < 10
7 | Cc1cc(F)ccc1-c1nc(NCCNC(=O)C(C)(C)C)nc2c1ccc(=O)n2-c1c(F)cccc1F | < 10
8 | Cc1cc(F)ccc1-c1nc(NCC(=O)N2CCNC(=O)C2)nc2c1ccc(=O)n2-c1c(F)cccc1F | < 10
9 | CSc1nc(-c2ccc(F)cc2C)c2ccc(=O)n(C3CCCCC3)c2n1 | < 10
10 | CCNC(=O)NCCNc1nc(-c2ccc(F)cc2C)c2ccc(=O)n(-c3c(F)cccc3F)c2n1 | < 10
11 | Cc1cc(F)ccc1-c1nc(NCCO)nc2c1ccc(=O)n2-c1ccccc1F | < 10
12 | Cc1cc(F)ccc1-c1nc(N[C@@H](C)CO)nc2c1ccc(=O)n2-c1c(F)cccc1F | < 10
13 | COCCNc1nc(-c2ccc(F)cc2C)c2ccc(=O)n(-c3c(F)cccc3F)c2n1 | < 10
14 | CCC(CC)n1c(=O)ccc2c(-c3ccccc3Cl)nc(NCCO)nc21 | < 10
15 | Cc1cc(F)ccc1-c1nc(OCCCS(C)(=O)=O)nc2c1ccc(=O)n2-c1c(F)cccc1F | < 10
16 | Cc1cc(F)ccc1-c1nc(N[C@@H]2CCC[C@@H]2C(N)=O)nc2c1ccc(=O)n2-c1c(F)cccc1F | < 10
17 | CSc1nc(-c2ccc(F)cc2C)c2ccc(=O)n(-c3c(C)cccc3C)c2n1 | < 10
18 | CSc1nc(-c2ccccc2F)c2ccc(=O)n(C)c2n1 | < 10
19 | Cc1cc(F)ccc1-c1nc(NCC(C)(C)O)nc2c1ccc(=O)n2-c1c(F)cccc1F | < 10
20 | Cc1cc(F)ccc1-c1nc(NCC(=O)N(C)C)nc2c1ccc(=O)n2-c1c(F)cccc1F | < 10

Row | SMILES | IC50 [µM]
21 | Cc1cc(F)ccc1-c1nc(NC2CCC(O)CC2)nc2c1ccc(=O)n2-c1ccccc1F (configuration not stated) | < 10
22 | CCC(CC)n1c(=O)ccc2c(-c3ccccc3Cl)nc(NCCN)nc21 | < 10
23 | Cc1cc(F)ccc1-c1nc(NC2CCOCC2)nc2c1ccc(=O)n2-c1ccccc1C | < 10
24 | COCCNC(=O)CNc1nc(-c2ccc(F)cc2C)c2ccc(=O)n(-c3c(F)cccc3F)c2n1 | < 10
25 | Cc1cc(F)ccc1-c1nc(NCC(=O)N2CCCC2)nc2c1ccc(=O)n2-c1c(F)cccc1F | < 10
26 | CCOC(=O)CNc1nc(-c2ccccc2Cl)c2ccc(=O)n(-c3ccccc3Cl)c2n1 | < 10
27 | CCC(CC)n1c(=O)ccc2c(-c3ccccc3Cl)nc(NC3CCN(C)CC3)nc21 | < 10
28 | COC(=O)CNc1nc(-c2ccc(F)cc2C)c2ccc(=O)n(-c3c(F)cccc3F)c2n1 | < 10
29 | CSc1nc(-c2ccc(F)cc2C)c2ccc(=O)n(-c3ccccc3F)c2n1 | < 10
30 | Cc1cc(F)ccc1-c1nc(NCc2ncc[nH]2)nc2c1ccc(=O)n2-c1c(F)cccc1F | < 10
31 | CC(C)n1c(=O)ccc2c(-c3ccccc3F)nc(NC(CO)CO)nc21 | < 10
32 | O=c1ccc2c(-c3ccccc3F)nc(NC(CO)CO)nc2n1-c1ccccc1F | < 10
33 | Cc1cc(F)ccc1-c1nc(NC2CCCCC2)nc2c1ccc(=O)n2-c1ccccc1C | < 10
34 | Cc1cc(F)ccc1-c1nc(NCC(C)(C)C)nc2c1ccc(=O)n2-c1ccccc1F | < 10
35 | Cc1cc(F)ccc1-c1nc(OCC(CO)CO)nc2c1ccc(=O)n2-c1c(F)cccc1F | < 10
36 | Cc1cc(F)ccc1-c1nc(NC(CO)CO)nc2c1ccc(=O)n2-c1ccccc1C | < 10
37 | Cc1cc(F)ccc1-c1nc(N(C)S(C)(=O)=O)nc2c1ccc(=O)n2-c1c(F)cccc1F | < 10
38 | Cc1cc(F)ccc1-c1nc(NCCNC(=O)NC2CCCCC2)nc2c1ccc(=O)n2-c1c(F)cccc1F | < 10
39 | COc1nc(-c2ccccc2Cl)c2ccc(=O)n(-c3ccccc3Cl)c2n1 | < 10
40 | Cc1cc(F)ccc1-c1nc(OCCNS(C)(=O)=O)nc2c1ccc(=O)n2-c1c(F)cccc1F | < 10

Row | SMILES | IC50 [µM]
41 | Cc1cc(F)ccc1-c1nc(NCC(=O)N2CC(O)C2)nc2c1ccc(=O)n2-c1c(F)cccc1F | < 10
42 | CSc1nc(-c2ccc(F)cc2C)c2c(n1)N(c1c(F)cccc1F)C(=O)CC2 | < 10
43 | Cc1cc(F)ccc1-c1nc(NCC(F)(F)F)nc2c1ccc(=O)n2-c1ccccc1C | < 10
44 | Cc1cc(F)ccc1-c1nc(O)nc2c1ccc(=O)n2-c1c(F)cccc1F | < 10
45 | Cc1cc(F)ccc1-c1nc(NCC(N)=O)nc2c1ccc(=O)n2-c1c(F)cccc1F | < 10
46 | O=C(O)CNc1nc(-c2ccccc2Cl)c2ccc(=O)n(-c3ccccc3Cl)c2n1 | < 10
47 | Cc1cc(F)ccc1-c1nc(NCCc2nnn[nH]2)nc2c1ccc(=O)n2-c1c(F)cccc1F | < 10
48 | Cc1cc(F)ccc1-c1nc(O)nc2c1ccc(=O)n2-c1ccccc1F | < 10
49 | Cc1cc(F)ccc1-c1nc(NCCNC(=O)c2ccccc2)nc2c1ccc(=O)n2-c1c(F)cccc1F | < 10
50 | Cc1cc(F)ccc1-c1nc(OCCN(C)S(C)(=O)=O)nc2c1ccc(=O)n2-c1c(F)cccc1F | < 10
51 | CCC(=O)NCCNc1nc(-c2ccc(F)cc2C)c2ccc(=O)n(-c3c(F)cccc3F)c2n1 | < 10
52 | Cc1cc(F)ccc1-c1nc(OCCNC(=O)OC(C)(C)C)nc2c1ccc(=O)n2-c1c(F)cccc1F | < 10
53 | Cc1cc(F)ccc1-c1nc(NC(C)(C)CO)nc2c1ccc(=O)n2-c1c(F)cccc1F | < 10
54 | CCN(CC)CCNc1nc(-c2ccccc2F)c2ccc(=O)n(-c3ccccc3Cl)c2n1 | < 10
55 | Cc1cc(F)ccc1-c1nc(NC(C)(CO)CO)nc2c1ccc(=O)n2-c1c(F)cccc1F | < 10
56 | Cc1cc(F)ccc1-c1nc(NCCN)nc2c1ccc(=O)n2-c1c(F)cccc1F | < 10
57 | CSc1nc(-c2ccccc2F)c2ccc(=O)n(-c3ccccc3Cl)c2n1 | < 10
58 | CCC(C)n1c(=O)ccc2c(-c3ccc(F)cc3C)nc(NC(CO)CO)nc21 (configuration not stated) | < 10

Further lines, results first:

Row | IC50 [µM] | SMILES
59 | < 10 | Cc1cc(F)ccc1-c1nc(N(C)CCO)nc2c1ccc(=O)n2-c1c(F)cccc1F
60 | < 10 | Cc1cc(F)ccc1-c1nc(NCC(=O)O)nc2c1ccc(=O)n2-c1c(F)cccc1F
61 | < 10 | Cc1cc(F)ccc1-c1nc(NCCO)nc2c1ccc(=O)n2-c1c(F)cccc1F
62 | < 10 | Cc1cc(F)ccc1-c1nc(NC[C@@H](C)O)nc2c1ccc(=O)n2-c1ccccc1F
63 | < 10 | Cc1cc(F)ccc1-c1nc(N[C@H]2CCC[C@@H]2O)nc2c1ccc(=O)n2-c1c(F)cccc1F
64 | < 10 | CS(=O)(=O)Nc1nc(-c2ccccc2)c2ccc(=O)n(-c3ccccc3)c2n1
65 | < 10 | CCONc1nc(-c2ccc(F)cc2C)c2ccc(=O)n(-c3ccccc3F)c2n1
66 | < 10 | Cc1cc(F)ccc1-c1nc(NCCC#N)nc2c1ccc(=O)n2-c1c(F)cccc1F
67 | < 10 | CCOc1nc(-c2ccc(F)cc2C)c2ccc(=O)n(-c3c(F)cccc3F)c2n1
68 | < 10 | CCOC(=O)NCCNc1nc(-c2ccc(F)cc2C)c2ccc(=O)n(-c3c(F)cccc3F)c2n1
69 | < 10 | Cc1cc(F)ccc1-c1nc(NCCNC(=O)CNC(=O)OC(C)(C)C)nc2c1ccc(=O)n2-c1c(F)cccc1F
70 | < 10 | Cc1cc(F)ccc1-c1nc(NCC(F)(F)F)nc2c1ccc(=O)n2-c1ccccc1F
71 | < 10 | Cc1cc(F)ccc1-c1nc(NC[C@@H](C)O)nc2c1ccc(=O)n2C1CCCCC1
72 | < 10 | Cc1cc(F)ccc1-c1nc(NCCc2c[nH]cn2)nc2c1ccc(=O)n2-c1c(F)cccc1F
73 | < 10 | Cc1cc(F)ccc1-c1nc(NCCC(=N)NO)nc2c1ccc(=O)n2-c1c(F)cccc1F
74 | < 10 | Cc1cc(F)ccc1-c1nc(N[C@@H]2CS(=O)(=O)C[C@H]2O)nc2c1ccc(=O)n2-c1c(F)cccc1F
75 | < 10 | CN1CCC(Nc2nc(-c3ccccc3Cl)c3ccc(=O)n(-c4ccccc4Cl)c3n2)CC1
76 | < 10 | O=c1ccc2c(-c3ccccc3F)nc(NC(CO)CO)nc2n1-c1c(F)cccc1F
77 | < 10 | Cc1cc(F)ccc1-c1nc(OC(CO)CO)nc2c1ccc(=O)n2-c1c(F)cccc1F
78 | < 10 | Cc1cc(F)ccc1-c1nc(NS(C)(=O)=O)nc2c1ccc(=O)n2-c1c(F)cccc1F

Row | IC50 [µM] | SMILES
79 | < 10 | Cc1cc(F)ccc1-c1nc(NC[C@H](C)O)nc2c1ccc(=O)n2C1CCCCC1
80 | < 10 | Cc1cc(F)ccc1-c1nc(NC2CCOC2)nc2c1ccc(=O)n2-c1c(F)cccc1F (configuration not stated)
81 | < 10 | Cc1cc(F)ccc1-c1nc(N[C@H](C)CO)nc2c1ccc(=O)n2-c1c(F)cccc1F
82 | < 10 | Cc1cc(F)ccc1-c1nc(NC2CCOCC2)nc2c1ccc(=O)n2-c1ccccc1F
83 | < 10 | Cc1cc(F)ccc1-c1nc(NC(C)(CO)CO)nc2c1ccc(=O)n2-c1ccccc1C
84 | < 10 | CCC(CC)n1c(=O)ccc2c(-c3ccccc3Cl)nc(NC(CO)CO)nc21
85 | < 10 | Cc1cc(F)ccc1-c1nc(N[C@@H](C)CO)nc2c1ccc(=O)n2-c1ccccc1C
86 | < 10 | Cc1cc(F)ccc1-c1nc(NC(CO)CO)nc2c1ccc(=O)n2-c1c(F)cccc1F
87 | < 10 | Cc1cc(F)ccc1-c1nc(Nc2nc[nH]n2)nc2c1ccc(=O)n2-c1c(F)cccc1F
88 | < 10 | CCNc1nc(-c2ccc(F)cc2C)c2ccc(=O)n(-c3ccccc3F)c2n1
89 | < 10 | CS(=O)(=O)c1nc(-c2ccccc2Cl)c2ccc(=O)n(-c3ccccc3Cl)c2n1
90 | < 10 | Cc1cc(F)ccc1-c1nc(NCC(=O)NC2CC2)nc2c1ccc(=O)n2-c1c(F)cccc1F
91 | < 10 | Cc1cc(F)ccc1-c1nc(N[C@H]2CC[C@H](O)CC2)nc2c1ccc(=O)n2-c1c(F)cccc1F
92 | < 10 | CCCCOc1nc(-c2ccc(F)cc2C)c2ccc(=O)n(-c3c(F)cccc3F)c2n1
93 | < 10 | Cc1cc(F)ccc1-c1nc(NC(CO)CO)nc2c1ccc(=O)n2C1CC1
94 | < 10 | CCN(CC)CCNc1nc(-c2ccccc2)c2ccc(=O)n(-c3ccccc3)c2n1
95 | < 10 | CN(C)CCNc1nc(-c2ccccc2Cl)c2ccc(=O)n(-c3ccccc3Cl)c2n1
96 | < 10 | CCNc1nc(-c2ccc(F)cc2C)c2ccc(=O)n(-c3ccccc3C)c2n1
97 | < 10 | Cc1cc(F)ccc1-c1nc(NCc2nnn[nH]2)nc2c1ccc(=O)n2-c1c(F)cccc1F
